Reference: paper PMC10247784, “Physiological activation of human and mouse bitter taste receptors by bile acids” (Communications Biology, 2023)
Where “and” joins values, the source holds several entries; their conditions need not be identical. Equal values may be shown once.

Biological target: T1, human TAS2R4 (Homo sapiens, UniProt Q9NYW5)
T1 construct: expressed in transfected cells; host or cells: HEK293T-Gα16gust44
T1 sequence (Q9NYW5 1-299): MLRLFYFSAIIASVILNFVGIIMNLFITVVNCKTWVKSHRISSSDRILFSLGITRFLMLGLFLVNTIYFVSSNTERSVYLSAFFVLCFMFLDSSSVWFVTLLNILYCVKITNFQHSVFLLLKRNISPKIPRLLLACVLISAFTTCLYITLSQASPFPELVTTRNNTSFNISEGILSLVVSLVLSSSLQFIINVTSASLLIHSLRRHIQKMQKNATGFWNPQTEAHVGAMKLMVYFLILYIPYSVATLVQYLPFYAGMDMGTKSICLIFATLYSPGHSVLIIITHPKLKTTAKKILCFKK
Experiment: Calcium imaging assay (FLIPR), HEK293T-Gα16gust44 cells transfected with human TAS2R4
Assay type: cell-based
Method: This set of bile acids was chosen because of their commercial availability in high purities, their diversity within the class of bile acids and their previous detection and quantitation in human blood. Stock solutions were prepared in DMSO.
As basal growth medium for the HEK293T-Gα16gust44 cell line[17],[59] served Dulbecco’s modified eagle medium (DMEM) (Thermo Fisher Scientific, Darmstadt, Germany) supplemented with 10 % fetal bovine serum (Sigma-Aldrich, Steinheim, Germany), 2 mM L-glutamine (Sigma-Aldrich, Steinheim, Germany), 100 units/ml penicillin (Sigma Aldrich, Steinheim, Germany) and 100 µg/ml streptomycin (Sigma Aldrich, Steinheim, Germany). Growth conditions were 37 °C, 5 % CO2 and saturated air-humidity[60].
HEK293T-Gα16gust44 cells were seeded on poly-D-lysine (10 µg/ml) coated 96-well plates to reach a confluence of 40-60 % the next day. For transient transfection 150 ng of plasmid DNA containing the receptor of interest and 0.3 µl lipofectamine 2000 (Thermo Fisher Scientific, Darmstadt, Germany) per well were used and transfection took place according to the manual of lipofectamine 2000. […] The empty vector DNA (mock) was transfected as negative control[14],[41].
Cells were loaded using the calcium-sensitive fluorescent dye Fluo-4-AM (Abcam, Cambridge, Great Britain) in the presence of 2.5 mM probenecid (Sigma-Aldrich, Steinheim, Germany) the day after transfection[13],[41]. 1 h after loading, cells were washed with C1 buffer using a BioTek Cell Washer, incubated in the dark for half an hour and washed again. For automated agonist application and measurement of fluorescence changes, a FLIPR^TETRA device (Molecular Devices, San José, United States) was used. Viability of cells was tested by application of 100 nM Somatostatin 14 (Bachem, Bubendorf, Switzerland)[42].
Measured data were negative control corrected by subtracting the signal of the mock-transfected cells and exported to Microsoft Excel using the FLIPR software ScreenWorks 4.2. In Microsoft Excel software, standardization of maximum fluorescence intensities to the basal fluorescence and normalization to the buffer-only control was done to calculate the relative fluorescence changes (ΔF/F).
Initial screening experiments performed in duplicate wells were confirmed by at least one replication and representative traces were selected for display. All dose-response relationships were determined by three independent experiments (biological replicates) performed in duplicates (technical replicates). Threshold concentrations, defined as lowest substance concentrations leading to statistically significant elevated fluorescence changes in receptor-transfected cells compared with empty vector-transfected cells, were determined using SigmaPlot with Student’s t-test to evaluate statistical significance (p < 0.01).

## C[C@H](CCC(=O)NCC(=O)O)[C@H]1CC[C@H]2[C@@H]3[C@H](O)C[C@@H]4C[C@H](O)CC[C@]4(C)[C@H]3C[C@H](O)[C@]12C [Glycocholic Acid, glycocholic acid]
TAS2R4, bile acids, mean
  Efficacy = maximal amplitude (ΔF/F): 0.1626
TAS2R4, bile acids, single replicates, listed as GCA
  Efficacy (maximal amplitude ΔF/F), individual data points: 0.1367 and 0.1786 and 0.1725
TAS2R4, conc. 0,01 mM
  Δ F/F: 0.01565
TAS2R4, conc. 0,1 mM
  Δ F/F: 0.106
TAS2R4, conc. 0,03 mM
  Δ F/F: 0.03923
TAS2R4, conc. 0,3 mM
  Δ F/F: 0.1626
TAS2R4, conc. 0,001 mM
  Δ F/F: 0.006443
TAS2R4, conc. 0,003 mM
  Δ F/F: 0.006613
Time (s) 0
  RLU, fluorescence trace: 0 RLU
Time (s) 2
  RLU, fluorescence trace: 4.14 RLU
Time (s) 4
  RLU, fluorescence trace: -20.6032 RLU
Time (s) 6
  RLU, fluorescence trace: -25.8877 RLU
Time (s) 8
  RLU, fluorescence trace: -29.799 RLU
Time (s) 12
  RLU, fluorescence trace: -12.9106 RLU
Time (s) 14
  RLU, fluorescence trace: -6.673 RLU
Time (s) 16
  RLU, fluorescence trace: -18.2287 RLU
Time (s) 18
  RLU, fluorescence trace: -27.0676 RLU
Time (s) 18.766 (TCA, TLCA: 18.782)
  RLU, fluorescence trace: -34.2066 RLU
Time (s) 20.781 (TCA, TLCA: 20.782)
  RLU, fluorescence trace: -42.9373 RLU
Time (s) 22.781 (TCA, TLCA: 22.782)
  RLU, fluorescence trace: 15.1075 RLU
Time (s) 24.781 (TCA, TLCA: 24.782)
  RLU, fluorescence trace: 91.6518 RLU
Time (s) 26.781 (TCA, TLCA: 26.782)
  RLU, fluorescence trace: 179.573 RLU
Time (s) 28.781 (TCA, TLCA: 28.782)
  RLU, fluorescence trace: 304.257 RLU
Time (s) 30.781 (TCA, TLCA: 30.782)
  RLU, fluorescence trace: 388.704 RLU
Time (s) 32.781 (TCA, TLCA: 32.782)
  RLU, fluorescence trace: 524.444 RLU
Time (s) 34.781 (TCA, TLCA: 34.782)
  RLU, fluorescence trace: 591.908 RLU
Time (s) 36.781 (TCA, TLCA: 36.782)
  RLU, fluorescence trace: 664.761 RLU
Time (s) 38.781 (TCA, TLCA: 38.782)
  RLU, fluorescence trace: 747.083 RLU
Time (s) 40.781 (TCA, TLCA: 40.782)
  RLU, fluorescence trace: 780.753 RLU
Time (s) 42.781 (TCA, TLCA: 42.782)
  RLU, fluorescence trace: 820.227 RLU
Time (s) 44.781 (TCA, TLCA: 44.782)
  RLU, fluorescence trace: 854.725 RLU
Time (s) 46.781 (TCA, TLCA: 46.782)
  RLU, fluorescence trace: 885.437 RLU
Time (s) 48.781 (TCA, TLCA: 48.782)
  RLU, fluorescence trace: 869.015 RLU
Time (s) 50.781 (TCA, TLCA: 50.782)
  RLU, fluorescence trace: 904.393 RLU
Time (s) 52.781 (TCA, TLCA: 52.782)
  RLU, fluorescence trace: 904.624 RLU
Time (s) 54.781 (TCA, TLCA: 54.782)
  RLU, fluorescence trace: 934.879 RLU
Time (s) 56.781 (TCA, TLCA: 56.782)
  RLU, fluorescence trace: 910.42 RLU
Time (s) 58.781 (TCA, TLCA: 58.782)
  RLU, fluorescence trace: 920.415 RLU
Time (s) 60.781 (TCA, TLCA: 60.782)
  RLU, fluorescence trace: 939.945 RLU
Time (s) 62.781 (TCA, TLCA: 62.782)
  RLU, fluorescence trace: 894.354 RLU
Time (s) 64.781 (TCA, TLCA: 64.782)
  RLU, fluorescence trace: 892.209 RLU
Time (s) 66.781 (TCA, TLCA: 66.782)
  RLU, fluorescence trace: 883.058 RLU
Time (s) 68.781 (TCA, TLCA: 68.782)
  RLU, fluorescence trace: 897.442 RLU
Time (s) 70.781 (TCA, TLCA: 70.782)
  RLU, fluorescence trace: 864.365 RLU
Time (s) 72.781 (TCA, TLCA: 72.782)
  RLU, fluorescence trace: 888.719 RLU
Time (s) 74.781 (TCA, TLCA: 74.782)
  RLU, fluorescence trace: 833.342 RLU
Time (s) 76.781 (TCA, TLCA: 76.782)
  RLU, fluorescence trace: 856.102 RLU
Time (s) 78.781 (TCA, TLCA: 78.782)
  RLU, fluorescence trace: 820.296 RLU
Time (s) 80.781 (TCA, TLCA: 80.782)
  RLU, fluorescence trace: 794.483 RLU
Time (s) 82.781 (TCA, TLCA: 82.782)
  RLU, fluorescence trace: 818.87 RLU
Time (s) 84.781 (TCA, TLCA: 84.782)
  RLU, fluorescence trace: 756.604 RLU
Time (s) 86.781 (TCA, TLCA: 86.782)
  RLU, fluorescence trace: 753.892 RLU
Time (s) 88.781 (TCA, TLCA: 88.782)
  RLU, fluorescence trace: 732.115 RLU
Time (s) 90.781 (TCA, TLCA: 90.782)
  RLU, fluorescence trace: 726.989 RLU
Time (s) 92.781 (TCA, TLCA: 92.782)
  RLU, fluorescence trace: 713.242 RLU
Time (s) 94.781 (TCA, TLCA: 94.782)
  RLU, fluorescence trace: 703.281 RLU
Time (s) 96.781 (TCA, TLCA: 96.782)
  RLU, fluorescence trace: 696.734 RLU
Time (s) 98.781 (TCA, TLCA: 98.782)
  RLU, fluorescence trace: 653.577 RLU
Time (s) 100.781 (TCA, TLCA: 100.782)
  RLU, fluorescence trace: 678.663 RLU
Time (s) 102.781 (TCA, TLCA: 102.782)
  RLU, fluorescence trace: 623.965 RLU
Time (s) 104.781 (TCA, TLCA: 104.782)
  RLU, fluorescence trace: 624.137 RLU
Time (s) 106.781 (TCA, TLCA: 106.782)
  RLU, fluorescence trace: 630.047 RLU
Time (s) 108.781 (TCA, TLCA: 108.782)
  RLU, fluorescence trace: 571.666 RLU
Time (s) 110.781 (TCA, TLCA: 110.782)
  RLU, fluorescence trace: 598.289 RLU
Time (s) 112.781 (TCA, TLCA: 112.782)
  RLU, fluorescence trace: 583.918 RLU
Time (s) 114.781 (TCA, TLCA: 114.782)
  RLU, fluorescence trace: 556.25 RLU
Time (s) 116.781 (TCA, TLCA: 116.782)
  RLU, fluorescence trace: 588.773 RLU
Time (s) 118.781 (TCA, TLCA: 118.782)
  RLU, fluorescence trace: 548.501 RLU
Time (s) 120.781 (TCA, TLCA: 120.782)
  RLU, fluorescence trace: 507.386 RLU
Time (s) 122.781 (TCA, TLCA: 122.782)
  RLU, fluorescence trace: 507.852 RLU
Time (s) 124.781 (TCA, TLCA: 124.782)
  RLU, fluorescence trace: 509.201 RLU
Time (s) 126.781 (TCA, TLCA: 126.782)
  RLU, fluorescence trace: 489.381 RLU
Time (s) 128.781 (TCA, TLCA: 128.782)
  RLU, fluorescence trace: 446.993 RLU
Time (s) 130.781 (TCA, TLCA: 130.782)
  RLU, fluorescence trace: 463.894 RLU
Time (s) 132.781 (TCA, TLCA: 132.782)
  RLU, fluorescence trace: 448.798 RLU
Time (s) 134.781 (TCA, TLCA: 134.782)
  RLU, fluorescence trace: 427.428 RLU
Time (s) 136.781 (TCA, TLCA: 136.782)
  RLU, fluorescence trace: 402.196 RLU
Time (s) 137.547
  RLU, fluorescence trace: 379.772 RLU
Time (s) 143.547
  RLU, fluorescence trace: 379.834 RLU
Time (s) 149.547
  RLU, fluorescence trace: 308.948 RLU
Time (s) 155.547
  RLU, fluorescence trace: 318.726 RLU
Time (s) 161.547
  RLU, fluorescence trace: 303.241 RLU
Time (s) 167.547
  RLU, fluorescence trace: 312.32 RLU
Time (s) 173.547
  RLU, fluorescence trace: 281.168 RLU
Time (s) 179.547
  RLU, fluorescence trace: 242.535 RLU
Time (s) 185.547
  RLU, fluorescence trace: 225.911 RLU
Time (s) 191.547
  RLU, fluorescence trace: 214.607 RLU
Time (s) 197.547
  RLU, fluorescence trace: 221.087 RLU
Time (s) 203.547
  RLU, fluorescence trace: 189.795 RLU
Time (s) 209.547
  RLU, fluorescence trace: 203.53 RLU
Time (s) 215.547
  RLU, fluorescence trace: 197.074 RLU
Time (s) 221.547
  RLU, fluorescence trace: 173.704 RLU
Time (s) 227.547
  RLU, fluorescence trace: 160.915 RLU
Time (s) 233.547
  RLU, fluorescence trace: 142.108 RLU
Time (s) 239.547
  RLU, fluorescence trace: 141.876 RLU
Time (s) 245.547
  RLU, fluorescence trace: 156.883 RLU
Time (s) 293.547
  RLU, fluorescence trace: 127.131 RLU
Time (s) 299.547
  RLU, fluorescence trace: 134.948 RLU
Time (s) 305.547
  RLU, fluorescence trace: 119.109 RLU
Time (s) 311.547
  RLU, fluorescence trace: 130.712 RLU
Time (s) 317.547
  RLU, fluorescence trace: 94.0562 RLU
Time (s) 323.547
  RLU, fluorescence trace: 123.872 RLU
Time (s) 329.547
  RLU, fluorescence trace: 117.665 RLU
Time (s) 335.547
  RLU, fluorescence trace: 137.018 RLU
Time (s) 341.547
  RLU, fluorescence trace: 127.876 RLU
Time (s) 347.547
  RLU, fluorescence trace: 133.973 RLU
Time (s) 353.547
  RLU, fluorescence trace: 116.889 RLU
Time (s) 359.547
  RLU, fluorescence trace: 102.962 RLU
Lowest concentration with significantly increased fluorescence vs empty vector (p < 0.01)
  Activation threshold concentration TAS2R4: 30 µM
